pIC50: −log10 of the molar value.
test system: platelet aggregation induced by ADP (platelet rich plasma); experiment: Inhibitory Effect on Platelet Aggregation in Guinea Pigs (induced by ADP); type: cell-based; conditions: Cavia porcellus; guinea pig platelet rich plasma, about 400,000 platelets/μl, 37° C., ADP final concentration 1 μM, test drug added 2 minutes before ADP; read-out: Inhibition of platelet aggregation by ADP, IC50
Method: Blood was collected from abdominal aorta of male guinea pigs under anesthesia with pentobarbital (20 mg/kg, i.p.) using sodium citrate as an anticoagulant (final concentration: 0.315%). The sodium citrate-supplemented blood was centrifuged at 1000 g for […] to obtain platelet rich plasma (PRP), which was further centrifuged at 1000 g for 10 minutes respectively at room temperature to obtain platelet poor plasma (PPP). The number of platelet was counted at automatic platelet counter (Sysmex E2500, Toaiyo-denshi). PRP was diluted with PPP to adjust the number of platelets to be about 400,000/μl. Platelet aggregation was measured as follows, using an 8-channel aggregometer (NBS HEMA TRACER VI, Niko Bioscience Inc.): The PRP (250 μl) was incubated at 37° C. for 2 minutes, to n added 25 μl of a test drug solution. Two minutes later, 25 μl of an agent (ADP; finalconcentration: 1 μM) for causing agglutination. The effect of the test drug was shown by the inhibition rate of the maximum aggregation rate of the test group against that of the control group.

Row | pIC50 | SMILES
1 | 7.15 | COC(=O)C[C@H]1C(=O)N(CC(=O)O)CCN1C(=O)[C@H](Cc1ccc(OC)cc1)NC(=O)C1CCN(c2ccncc2)CC1 [compound 9]
2 | 7.36 | COC(=O)C[C@H]1C(=O)N(CC(=O)OC(C)(C)C)CCN1C(=O)[C@H](CC(=O)N1CCN(c2ccncc2)CC1)NC(=O)OC(C)(C)C [compound 20]
3 | 7.21 | COC(=O)C[C@H]1C(=O)N(CC(=O)O)CCN1C(=O)[C@H](CC(=O)N1CCN(c2ccncc2)CC1)NC(=O)OC [compound 24]
4 | 7.24 | CN[C@H](CC(=O)N1CCN(c2ccncc2)CC1)C(=O)N1CCN(CC(=O)O)C(=O)[C@@H]1CC(=O)OC [compound 40]
5 | 7.42 | COC(=O)C[C@H]1C(=O)N(CC(=O)OC)CCN1C(=O)CCC(=O)N1CCN(c2ccccn2)CC1 [compound 12]
6 | 7.00 | COC(=O)C[C@H]1C(=O)N(CC(=O)O)CCN1C(=O)[C@@H](CC(=O)N1CCN(c2ccncc2)CC1)NC(=O)OCOC(=O)C(C)(C)C [compound 43]
7 | 6.62 | COC(=O)C[C@H]1C(=O)N(CC(=O)O)CCN1C(=O)[C@H](CC(=O)N1CCN(c2ccncc2)CC1)NS(=O)(=O)c1ccc(OC)cc1 [compound 33]
8 | 7.22 | COC(=O)C[C@H]1C(=O)N(CC(=O)O)CCN1C(=O)[C@@H](CC(=O)N1CCN(c2ccncc2)CC1)NS(=O)(=O)c1ccc(OC)cc1 [compound 31]
9 | 6.66 | COC(=O)C[C@H]1C(=O)N(CC(=O)O)CCN1C(=O)[C@H](CC(=O)N1CCN(c2ccncc2)CC1)NCc1ccc(OC)cc1 [compound 36]
10 | 7.12 | COC(=O)C[C@H]1C(=O)N(CC(=O)OC)CCN1C(=O)CCC(=O)N1CCN(c2ncccn2)CC1 [compound 14]

— patent publication US6242600A, “2-piperazinone-1-acetic acid derivatives and their use” (Takeda Chemical Industries, Ltd., priority 1997, dated 2001)
